Measured values: patent US9434687B2, “Detection of synthetic cannabinoids” (priority 2011, dated 2016)
Read-outs that look alike come from different tables or passages of the source.

Legend:
Assay type in all cases: binding, sheep
[1] = system: antibodies raised to Immunogens I & II; assay: Competitive ELISA, selected molecules as potential cross-reactants (Table 3)
Experimental: (a) The wells of an enhanced binding 96 well polystyrene microtiter plate were coated with the Ig fraction of the antiserum raised to Immunogen I (Hapten A-BTG—example 5) and diluted in 10 mM Tris, pH8.5 (125 μl/well). The appropriate antibody coating concentration was determined using standard ELISA checkerboard techniques. The plate was incubated for 2 hours at 37° C., washed 4 times over a 10-minute period with Tris buffered saline containing Tween 20 (TBST) and tapped dry. Standard solutions of JWH synthetic cannabinoids, metabolites and selected molecules were prepared in TBST and 50 μl of each was added to the appropriate wells. 75 μl of conjugate (Hapten A-HRP) diluted in Tris buffer containing EDTA, D-mannitol, sucrose, thimerosal and BSA, was added to each of the wells. The appropriate dilution of conjugate was also determined using standard ELISA checkerboard techniques. The plate was incubated at 25° C. for 1 hour. The excess unbound conjugate was removed by washing 6 times over a 10-minute period with TBST and tapped dry. 125 μl of tetramethylbenzedine (TMB) substrate solution was added to each well of the plate that was then incubated for 15-20 minutes in the dark at room temperature. The reaction was terminated by addition of 125 μl of 0.2M sulphuric acid to each well. The absorbance was then measured at 450 nm using a microtiter plate reader.
Employing each series of standards, calibration curves were generated and these were used to determine the specificity of the immunoassay for the JWH synthetic cannabinoids, metabolites and selected molecules. The results of this study are presented in Tables 1 to 3, cross-reactivity being calculated according to the following formula: % CR=IC50,JWH-018/IC50,CR×100
Where % CR is the percentage cross-reactivity, IC50, JWH-018 is the concentration of JWH-018 that causes 50% displacement of signal and IC50, CR is the concentration of JWH synthetic cannabinoid/metabolite/selected molecule that causes 50% displacement of signal.
The antibody produced from Immunogen I is able to bind to JWH molecules known to be incorporated in herbal therapeutics such as JWH-018, proposed metabolites such as M2 (Wintermeyer et al 2010), and potential metabolites such as M5. The detection and quantification of other JWH SSCs is also provided for, the antibodies of the invention bind a range of molecules comprising the 3-(1-naphthoyl)-1H-indole structure (e.g. JWH-071, JWH-398, M1 etc.). […] The concept of using the antibodies of the invention to detect and determine future stealth synthetic cannabinoids is highlighted in Table 4; the 5-fluoropentyl derivative known to bind the CB 1 receptor, but which as of yet has not been detected in herbal therapeutics or similar substances, binds to antibodies raised from Immunogens I and II.

[2] = system: IgG fraction of antiserum raised to Immunogen VIII
[3] = system: IgG fraction of antiserum raised to Immunogen IV
[4] = system: IgG fraction of antiserum raised to Immunogen VII; conditions: Antibody to Immunogen VII; cross-reactants at 100 ng/ml; 1000 ng/ml; standard JWH-015
[5] = Antibody to Immunogen VIII, cross-reactants at 100 ng/ml, 1000 ng/ml, standard JWH-018
[6] = Antibody to Immunogen IV, cross-reactants at 100 ng/ml, 1000 ng/ml, standard JWH-018

Row | Compound | % B/B0 [2, 5] [%] | % B/B0 [3, 6] [%] | % B/B0 [4] [%] | also measured
1 | O=C(c1cccc2ccccc12)c1cn(CCCCCF)c2ccccc12 [AM-2201, 1-(5-Fluoropentyl)indol-3-yl (1-naphthyl) methanone] | 16.74 | 6.20 | 55.28 | binding / cross-reaction with antibodies raised from Immunogens I and II (in words) [1]: binds
2 | O=C(c1cccc2ccccc12)c1c[nH]c2ccccc12 [N-desalkyl JWH-018, 3-(1-naphthoyl)-1H-Indole] | 90.49 | 95.55 | 80.08 | –
3 | O=C(c1cccc2ccccc12)c1cn(CCN2CCOCC2)c2ccccc12 [JWH-200] | 98.81 | 77.08 | 42.85 | –
4 | CCCCCn1cc(C(=O)c2cccc3ccccc23)c2c(O)cccc21 [4-OH JWH-018, JWH-018 4-hydroxyindole metabolite] | 16.72 | 20.42 | 89.96 | –
5 | CCCCCn1cc(C(=O)c2cccc3ccccc23)c2ccccc21 [JWH-018] | 17.66 | 6.80 | 67.66 | % B/B0 ([2]; JWH-018 1 ng/ml): 79%; % B/B0 ([2]; JWH-018 3 ng/ml): 63%; % B/B0 ([2]; JWH-018 5 ng/ml): 51%; % B/B0 ([2]; JWH-018 10 ng/ml): 40%; % B/B0 ([2]; JWH-018 20 ng/ml): 29%; % B/B0 ([2]; JWH-018 40 ng/ml): 22%; % B/B0 ([2]; JWH-018 80 ng/ml): 16%; IC50 ([2]; Table 9 standard curve, standard concentration which produces 50% B/B0): 5.230 ng/mL; % B/B0 ([3]; JWH-018 1.25 ng/ml): 87%; % B/B0 ([3]; JWH-018 2.5 ng/ml): 68%; % B/B0 ([3]; JWH-018 5 ng/ml): 42%; % B/B0 ([3]; JWH-018 10 ng/ml): 26%; % B/B0 ([3]; JWH-018 20 ng/ml): 16%; % B/B0 ([3]; JWH-018 40 ng/ml): 10%; % B/B0 ([3]; JWH-018 80 ng/ml): 7%; IC50 ([3]; Table 8 standard curve, standard concentration which produces 50% B/B0): 4.133 ng/mL
6 | CCCCCn1cc(C(=O)c2cccc3ccccc23)c2ccc(O)cc21 [6-OH JWH-018, JWH-018 6-hydroxyindole metabolite] | 89.86 | 51.00 | 68.17 | –
7 | CCCCCn1cc(C(=O)c2cccc3ccccc23)c2cc(O)ccc21 [5-OH JWH-018, JWH-018 5-hydroxyindole metabolite] | 87.67 | 78.56 | 85.76 | –
8 | CCCCCn1cc(C(=O)c2ccc(Cl)c3ccccc23)c2ccccc21 [JWH-398] | 18.66 | 6.00 | 94.47 | binding / cross-reaction with antibodies raised from Immunogens I and II (in words) [1]: bind
9 | O=C(c1cccc2ccccc12)c1cn(CCCCCO)c2ccccc12 [JWH-018 N-(5-hydroxypentyl) metabolite] | 57.37 | 78.42 | 53.32 | –
10 | O=C(O)CCCCn1cc(C(=O)c2cccc3ccccc23)c2ccccc21 [JWH-018 N-pentanoic acid metabolite] | 100.31 | 99.89 | 53.02 | binding / cross-reaction with antibodies raised from Immunogens I and II (in words) [1]: bind
11 | CCCCn1cc(C(=O)c2cccc3ccccc23)c2ccccc21 [JWH-073] | 25.50 | 13.63 | 58.34 | –
